Broadly, the melting point is the temperature of the solid-liquid transition.

As to `CC(C)(C)C(=O)c1c[nH]c2ncc(-c3cccc(NS(=O)(=O)c4ccc(N)cc4)c3)nc12`, the melting point lay within 264 to 266 °C.

Regarding `CCn1c2ccccc2c2oc(C#N)cc(=O)c21`, the melting point is 184 to 185 °C. In the case of `O=[N+]([O-])c1ccc(OCc2ccc(C(F)(F)F)cc2)cc1` it was 80.5 to 81.5 °C; in that of `N#CCCc1c(-c2ccccc2)c(=O)[nH]c2cc(Cl)ccc12`, 252 to 254 °C; in that of `Cc1ccc2c(c1)N=C(NCc1cccnc1)c1ccccc1N2`, 186 to 187 °C. In the case of `NS(=O)(=O)c1ccccc1-c1ccccn1` it was 186 to 190 °C. In the case of `CSCC(C)(CN)C(=O)N(C)c1nnc(-c2cncc(F)c2)s1` (stereo not given) it was 154 to 157 °C; in that of `CCCCOCCOc1ccc(-c2ccc3c(c2)C=C(C(=O)O)CCN3Cc2ccccc2)cc1`, 133 to 138 °C; in that of `NC(=O)N1CCC(Oc2ccc([N+](=O)[O-])cc2)(c2ccccc2)CC1`, 203 to 206 °C. In turn, `O=C1CCCc2ccc(OCCCCN3CCN(c4cccc5c4OCC5)CC3)nc2N1` gave a melting point of 176 to 177 °C. In the case of `CN1C(=O)SC(Cc2ccc(N)cc2)C1=O` (stereo not given) it was 91 to 92 °C. The compound `COc1ccc(-c2sc3cccnc3c2OC(C)=O)cc1` registered a melting point of 146 to 148 °C. On to `Cc1cc(-c2csc(-c3cccc(C(=O)O)c3)n2)c(C)s1`, for which the melting point lay within 155 to 156 °C.

In turn, `CCCCCCCCCCc1ccc(C(=O)NOCc2ccccc2)cc1` returned a melting point of 82 to 83 °C. Turning to `O=C(NCc1ccccc1)OCCc1noc(-c2ccc(CN3CCCCCC3)s2)n1`, the melting point fell in the range of 138 to 139 °C. In the case of `CC(C)(C)c1cc(C2=CCCCCC2)c(O)c(C(C)(C)C)c1` it was 78 to 80 °C; in that of `O=[N+]([O-])c1ccc(-c2nnc3ccc(N=CCN4CCCCC4)nn23)o1`, 207 to 209 °C. On to `COc1ccc(C(=O)Nc2ccccc2)cc1NS(=O)(=O)c1ccccc1Cl`, for which the melting point is 107 to 109 °C. In the case of `COc1ccc(C2=NN(c3ccc(CCO)cc3)C(=O)[C@H]3CC=CC[C@@H]23)cc1OC` (relative stereo) it was 137 to 139 °C. Consider `CCCCCCCCC(=O)Nc1ccc([N+](=O)[O-])cc1`, for which the melting point was 76 to 76.5 °C. For `CC(C)NC1=NS(=O)(=O)c2ccc(F)cc2N1`, the melting point fell in the range of 266 to 269 °C. As to `COC(=O)CC(=O)c1ccc2c(c1)CCC(=O)N2C`, the melting point was 175 to 176 °C.

As to `Cc1nnc(-c2ccc3occ(-c4ccc(S(=O)C(F)(F)F)cc4)c3c2)o1` (stereo not given), the melting point was in the range of 183 to 184 °C. In the case of `CC(C)n1nc(C#Cc2ccc(F)cc2)ccc1=O` it was 106 °C.

Compound `Nc1nc(N)c(N=O)c(OCC2CCCCC2)n1` yielded a melting point of 254 °C. `CC(=O)Nc1n[nH]c(C(C)(C)C)c1Br` gave a melting point of 234 to 235 °C. In the case of `C=CC1CCC2(C)C(CCC3C4CCC(=O)C4(C)CCC32)C1` (stereo not given) it was 100 to 102 °C. As to `Cc1cc(-c2nnc3c4cccnc4c(OCc4ncnn4C)nn23)no1`, the melting point fell in the range of 255 to 257 °C. `S=C=Nc1ccc(-c2nc(-c3cccnc3)no2)cc1` came in with a melting point of 121 to 123 °C. The compound `CN1C(=O)N(c2c(Cl)cccc2Cl)Cc2cnc(NCCc3ccccc3)nc21` yielded a melting point of 148 to 151 °C. In the case of `COc1cc(C)nc(-n2cncn2)n1` it was 142 to 143 °C. In the case of `NC(Cc1ccc(OCc2ccccc2)cn1)C(=O)Nc1ccc(CCCC(=O)NO)cc1` (stereo not given) it was > 300 °C; in that of `CCCOc1ccccc1C(=O)CCC(=O)O`, 77 to 79 °C.

Compound `Cn1ncc(C(=O)N2CC(F)C2)c1C(=O)Nc1ccn2nc(N3CCOCC3)nc2c1` showed a melting point of 247 to 250 °C. In the case of `CC1=CC2=C(N3CN(O)C=C3N=N2)N(c2ccccc2Cl)C1` it was 300 °C; in that of `O=C1Nc2ccccc2N(C(=O)N2CCCC(CCN3CCCCC3)C2)c2ncccc21` (stereo not given), 168 to 169 °C; in that of `CC(C)(C)c1nc2cc3c(cc2[nH]1)NC(=O)C3(C)C`, > 300 °C. In the case of `O=C(Nc1cc(Cl)ccc1O)c1cc(Cl)cc(Cl)c1` it was 251 to 252 °C; in that of `Cc1ccc(-n2cccc2)c(N)c1`, 89 to 90 °C; in that of `CC(C)(CO)NS(=O)(=O)c1cc([N+](=O)[O-])c(Cl)s1`, 113 °C. In the case of `O=C(O)CCCC#CCNS(=O)(=O)c1ccc(Cl)cc1` it was 91 to 93 °C; in that of `CCOC(Cc1ccc(OCCN2c3ccccc3Sc3ccccc32)cc1)C(=O)O` (stereo not given), 106 to 113 °C; in that of `NC(=O)N(Cc1ccc(C(F)(F)F)c(N2CCCCC2)c1)c1cccc2c1CC(O)CC2` (stereo not given), 163 °C. On to `O=c1c(CO)cc(-c2ccc3c(c2)CCO3)nn1CC=Cc1ccc(Cl)cc1`, for which the melting point fell in the range of 131 to 141 °C.

`CCc1ccc(NC2=CC3=NCN(C)C3=CC2(F)C(=O)OC)c(F)c1` (stereo not given): the melting point worked out at 238 °C. `Cc1cc(OCc2c(-c3c(Cl)cccc3Cl)noc2C(C)C)cnc1NC(=O)c1ccc(C(=O)O)cc1`: the melting point amounted to 218 °C. In the case of `CCSc1ccc(-c2nccs2)c2c1C(=O)CC(C)C2` (stereo not given) it was 117 to 118 °C; in that of `CCOC(=O)c1c(C)nc2scnc2c1N`, 118 to 119 °C; in that of `C(=Cc1ccccc1)C=NC1CCOc2ccccc21` (stereo not given), 106 to 107 °C.

`COc1cc(OC)nc(NC(=O)NS(=O)(=O)Nc2c(C)csc2C)n1` yielded a melting point of 190 °C. In the case of `CCOCCS(=O)(=O)N1CC[C@@H](C(=O)N(C)Cc2cc(C(F)(F)F)cc(C(F)(F)F)c2)[C@H](c2ccc(F)cc2C)C1` (relative stereo) it was 151 to 153 °C. In the case of `O=C(NCCc1ccc(OCc2ccccc2)c(OCc2ccccc2)c1CCc1cccc(OCc2ccccc2)c1)C(F)(F)F` it was 142 to 144 °C; in that of `CCOC(=O)CN[C@@H](c1ccccc1)[C@H](O)c1ccccc1`, 126 to 127 °C; in that of `CC(C)=CCOC1(C(F)(F)F)CN(C2CC2)C(=O)Nc2ccc(Cl)cc21` (stereo not given), 130 to 131 °C. In the case of `C[C@@H](O)Cn1ccc2cc(F)c(F)cc21` it was 114 to 116 °C; in that of `O=C(O)C12C3C4C5C(C1C53[N+](=O)[O-])C42[N+](=O)[O-]` (stereo not given), 187 °C; in that of `Cc1nnc2n1-c1ccc(N)cc1C(c1ccccc1Cl)=CC2`, 271 to 273 °C. In turn, `Cn1ccc(S(=O)(=O)NC(C)(C)C)c1` had a melting point of 134 to 135 °C. In the case of `O=C(O)[C@H]1NCC[C@@H](O)[C@@H]1O` it was 253 to 260 °C. In the case of `N#Cc1cnc2sc(S(=O)(=O)Cc3ccccc3)nn2c1=O` it was 219 to 221 °C; in that of `Cc1oc(-c2ccccc2)nc1COc1ccc2c(c1)CCC(C=C1SC(=O)NC1=O)=C2`, 271 to 272 °C; in that of `CC(C)(C)Nc1c[nH]c2ccccc12`, 137 to 142 °C.

For `CCN(CC)C(=O)c1ccc(C(=C2CCNCC2)c2cccc3cccnc23)cc1`, the melting point was > 170 °C. In the case of `COc1cccc(CNC(=O)c2nc3cccc(OCCN4CCC(C(=O)O)CC4)c3c(=O)[nH]2)c1` it was 127 to 130 °C; in that of `O=C(O)Cn1cc(C(=O)O)c(=O)c2cc(O)ccc(=O)c21`, > 250 °C. In the case of `O=C1Nc2cc3c(cc2OC1CCCBr)CCCC3` (stereo not given) it was 139 to 140 °C.

Regarding `CCOc1ccc(CCCOc2nn(C)cc2CC(=O)O)c(Oc2ccc(Cl)cc2Cl)n1`, the melting point lay within 81 to 83 °C.

For `Cc1ccccc1-n1c(-c2sc(Nc3ccccc3)nc2C)nc2ccccc2c1=O`, the melting point fell in the range of 227 to 228 °C. In turn, `CCN(CC)CCCNc1ncc2cc(-c3c(Br)cccc3Br)c(N)nc2n1` showed a melting point of 226 to 230 °C. In the case of `Nc1cc(C(=O)O)cc(S(N)(=O)=O)c1Oc1cccc(C(F)(F)F)c1` it was 270 °C; in that of `Cc1cc(Oc2ccc(S(=O)(=O)c3ccc(Cl)cc3)cc2)ccc1N`, 200 °C; in that of `O=C(O)CC1CCCCc2c1c1cc(F)ccc1n2Cc1ccc(Cl)cc1` (stereo not given), 138 to 139 °C. In the case of `CN(C(=O)OCc1ccccc1)c1ccc2c(c1)C(=O)C1(CC1)O2` it was 79 to 81 °C; in that of `O=C(c1cccs1)C(O)c1ccc(F)cc1` (stereo not given), 90 to 92 °C. In the case of `NC(=O)/C=C1\CC(O)c2ccc(F)cc21` (stereo not given) it was 166 to 168 °C. For the compound `O=C(Cc1ccc(Cl)c(Cl)c1)NC1N=C(C2CC2)c2ccccc2N(CC(F)(F)F)C1=O` (single isomer, unassigned; (+)), the melting point lay within 193 to 194 °C. `COC(=O)c1ccc(C(F)(F)F)cc1Sc1ccccc1`: the melting point was 55 to 60 °C. In the case of `CC(C)Oc1ccc2nc(COc3ccc(CC4SC(=O)NC4=O)cc3)n(C)c2n1` (stereo not given) it was 210 to 212 °C; in that of `CCCCCCCCCCCCCCCC(=O)CSC`, 38 to 40 °C. `CCCc1nc2c(N)nc3ccccc3c2n1CCC(=O)N(C)C` gave a melting point of 207 to 209 °C. In the case of `COC(=O)/C=C/C#Cc1cccc(S(=O)(=O)Nc2ccccc2)c1`, the melting point lay in the range of 134 to 136 °C.

In turn, `COc1cc2c(cc1C(F)(F)F)N(C(=O)Nc1ccc(CN(C)C)cc1)CC2` came in with a melting point of 169 to 170 °C.

Compound `COC(=O)CCc1ccc(-n2c(C)cn(-c3ccc(C(=N)NC(=O)OC)cc3)c2=O)cc1` had a melting point of 212 to 213 °C.

`Cc1nccn1-c1cnc2[nH]cc(C(=O)C(C)(C)C)c2n1`: the melting point fell in the range of 247 to 249 °C.

As to `CCS(=O)(=O)N=CNCc1nc(-c2csc(N=C(N)N)n2)cs1`, the melting point is 216 to 217 °C. With `O=C(NC(=O)c1ccc(F)cc1Cl)Nc1ccc(OC(F)(F)C(F)Cl)c(Cl)c1` (stereo not given), the melting point is 186 °C. In the case of `Cc1ccc(C(=O)c2noc(CC(=O)O)n2)cc1` it was 140 to 141 °C; in that of `CC(C)c1cccc(-c2c(Cl)ccc3c2C=C(C(=O)O)C(C(F)(F)F)O3)c1` (stereo not given), 184 to 186 °C.

`Cc1ccc(-c2nc3sc4ccccc4n3c2CC(=O)O)s1`: the melting point is 255 to 259 °C. In the case of `CC(C)(C)C(=O)c1c[nH]c2ncc(-c3cccc(N)c3)nc12` it was 239 to 241 °C.

The values above are taken from a melting point compilation (Tetko et al.; mined from patent text by program, amines drawn as free bases though some values may be those of a salt).
